In article PMC5330258 (Journal of medicinal chemistry, 2016):
Where two headings read alike, the source gives them in different places. Each block holds one compound with its values, some of them ahead of it.

Legend:
[1] = target: T1, VDR (Homo sapiens, UniProt P11473); test: Lentiviral VDRE-luciferase transcriptional reporter assay; assay type: cell-based; settings: for VDR activation (in words): concentration up to 1000 nM, all three cell lines (HaCaT, Caco-2, Jurkat); for EC50: 24 h, NS: no significance
T1 sequence (P11473 1-427): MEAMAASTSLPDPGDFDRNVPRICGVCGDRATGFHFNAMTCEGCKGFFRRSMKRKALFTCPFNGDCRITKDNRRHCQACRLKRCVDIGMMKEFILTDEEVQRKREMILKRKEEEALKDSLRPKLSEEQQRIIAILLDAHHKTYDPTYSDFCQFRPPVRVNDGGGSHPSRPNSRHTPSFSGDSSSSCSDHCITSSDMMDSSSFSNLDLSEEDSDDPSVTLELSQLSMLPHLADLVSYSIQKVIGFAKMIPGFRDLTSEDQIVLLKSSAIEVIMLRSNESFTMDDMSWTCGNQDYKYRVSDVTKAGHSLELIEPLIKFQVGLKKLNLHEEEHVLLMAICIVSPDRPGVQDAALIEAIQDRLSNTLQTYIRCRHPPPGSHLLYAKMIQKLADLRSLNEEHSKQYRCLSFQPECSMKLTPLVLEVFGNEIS

[2] = cited from earlier work
[3] = system: SKMEL-188 melanoma cells; test: Antiproliferative activity on melanoma cells; assay type: cell-based; settings: compared with parent compounds and 1,25(OH)2D3

Structure (SMILES): C=C1CC[C@H](O)C/C1=C/C=C1\CCC[C@@]2(C)[C@H]1CC[C@@H]2[C@@](C)(O)CCCC(C)C [20S(OH)D3, 20S-hydroxyvitamin D3]
Calcemic effect ([2]; doses up to 30 μg/kg in mice): noncalcemic

Structure (SMILES): C=C1/C(=C\C=C2/CCC[C@]3(C)[C@@H]([C@H](C)CCCC(C)(C)O)CC[C@@H]23)C[C@@H](O)C[C@@H]1O [1,25(OH)2D3, 1α,25-dihydroxyvitamin D3]
Calcemic effect ([2]; rats and mice): causes hypercalcemia

Structure (SMILES): C=C1/C(=C\C=C2/CCC[C@@]3(C)[C@H]2CC[C@@H]3[C@@](C)(O)C[C@@H](O)CC(C)C)C[C@@H](O)C[C@@H]1O [18b, 1α,20S,23S(OH)3D3]
Maximal inhibition values (in words) [3]: higher maximal inhibition values

Continued, in another order:

VDR activation (in words) [1]: unable to activate VDR | EC50 ([1]; read-out: VDRE activation (EC50, nM) Caco-2, Caco-2 cells): > 1000 nM | EC50 ([1]; read-out: VDRE activation (EC50, nM) HaCaT, HaCaT cells): > 1000 nM | EC50 ([1]; read-out: VDRE activation (EC50, nM) Jurkat, Jurkat cells): > 1000 nM
Structure (SMILES): C=C1CC[C@H](O)C/C1=C/C=C1\CCC[C@@]2(C)[C@H]1CC[C@@H]2[C@@](C)(O)C[C@@H](O)CC(C)C [17b, 20S,23S-dihydroxyvitamin D3]

VDR activation (in words) [1]: strong stimulatory effect
Structure (SMILES): C=C1CC[C@H](O)C/C1=C/C=C1\CCC[C@@]2(C)[C@H]1CC[C@@H]2[C@@](C)(O)C[C@H](O)CC(C)C [17a, 20S,23R(OH)2D3]

EC50 in Jurkat cells relative to that of 18b ([1]; Jurkat cells): six times lower
Structure (SMILES): C=C1/C(=C\C=C2/CCC[C@@]3(C)[C@H]2CC[C@@H]3[C@@](C)(O)C[C@H](O)CC(C)C)C[C@@H](O)C[C@@H]1O [18a, 1α,20S,23R(OH)3D3]
Maximal inhibition values (in words) [3]: higher maximal inhibition values
